From paper PMC7206119, “RIP1 inhibition blocks inflammatory diseases but not tumor growth or metastases” (Cell Death and Differentiation, 2019)

Legend:
Assay in all cases: biochemical
Set-up in all cases: DiscoverX kinase panel, active-site competition binding (KINOMEscan type), percent of control at one concentration
Conditions in all cases: competition binding, percent of control
MELK = MELK (Homo sapiens, UniProt Q14680)
ANKK1 = ANKK1 (Homo sapiens, UniProt Q8NFD2)
DAPK2 = DAPK2 (Homo sapiens, UniProt Q9UIK4)
CDK4-cyclinD1 = biological target: T1, CDK4-cyclinD1 (Homo sapiens, UniProt P11802)
T1 construct: cyclinD1

CDK4-cyclinD3 = biological target: T2, CDK4-cyclinD3 (Homo sapiens, UniProt P11802)
T2 construct: cyclinD3

PFCDPK1(P.falciparum) = biological target: T3, PFCDPK1(P.falciparum) (Plasmodium falciparum, UniProt P62344)
T3 construct: gene CDPK1

SNRK = SNRK (Homo sapiens, UniProt Q9NRH2)
PAK2 = PAK2 (Homo sapiens, UniProt Q13177)
S6K1 = biological target: T4, S6K1 (Homo sapiens, UniProt P23443)
T4 construct: gene RPS6KB1
T4 sequence (P23443 whole entry): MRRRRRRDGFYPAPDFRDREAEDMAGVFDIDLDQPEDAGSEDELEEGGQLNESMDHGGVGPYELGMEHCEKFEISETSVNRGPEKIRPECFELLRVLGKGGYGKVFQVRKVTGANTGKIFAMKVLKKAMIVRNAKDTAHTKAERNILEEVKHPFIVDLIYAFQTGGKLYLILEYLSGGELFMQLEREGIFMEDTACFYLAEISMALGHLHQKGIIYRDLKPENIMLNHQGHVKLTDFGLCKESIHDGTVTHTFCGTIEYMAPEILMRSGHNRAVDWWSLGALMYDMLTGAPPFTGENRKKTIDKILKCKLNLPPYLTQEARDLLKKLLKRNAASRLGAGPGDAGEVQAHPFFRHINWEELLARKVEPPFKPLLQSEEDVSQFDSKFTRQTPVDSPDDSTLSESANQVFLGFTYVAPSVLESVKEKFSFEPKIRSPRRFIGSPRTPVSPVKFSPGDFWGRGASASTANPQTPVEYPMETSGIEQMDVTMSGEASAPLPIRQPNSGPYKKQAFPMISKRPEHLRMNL

BMX = BMX (Homo sapiens, UniProt P51813)
CSF1R = CSF1R (Homo sapiens, UniProt P07333)
MLK1 = biological target: T5, MLK1 (Homo sapiens, UniProt P80192)
T5 construct: gene MAP3K9
T5 sequence (P80192 whole entry): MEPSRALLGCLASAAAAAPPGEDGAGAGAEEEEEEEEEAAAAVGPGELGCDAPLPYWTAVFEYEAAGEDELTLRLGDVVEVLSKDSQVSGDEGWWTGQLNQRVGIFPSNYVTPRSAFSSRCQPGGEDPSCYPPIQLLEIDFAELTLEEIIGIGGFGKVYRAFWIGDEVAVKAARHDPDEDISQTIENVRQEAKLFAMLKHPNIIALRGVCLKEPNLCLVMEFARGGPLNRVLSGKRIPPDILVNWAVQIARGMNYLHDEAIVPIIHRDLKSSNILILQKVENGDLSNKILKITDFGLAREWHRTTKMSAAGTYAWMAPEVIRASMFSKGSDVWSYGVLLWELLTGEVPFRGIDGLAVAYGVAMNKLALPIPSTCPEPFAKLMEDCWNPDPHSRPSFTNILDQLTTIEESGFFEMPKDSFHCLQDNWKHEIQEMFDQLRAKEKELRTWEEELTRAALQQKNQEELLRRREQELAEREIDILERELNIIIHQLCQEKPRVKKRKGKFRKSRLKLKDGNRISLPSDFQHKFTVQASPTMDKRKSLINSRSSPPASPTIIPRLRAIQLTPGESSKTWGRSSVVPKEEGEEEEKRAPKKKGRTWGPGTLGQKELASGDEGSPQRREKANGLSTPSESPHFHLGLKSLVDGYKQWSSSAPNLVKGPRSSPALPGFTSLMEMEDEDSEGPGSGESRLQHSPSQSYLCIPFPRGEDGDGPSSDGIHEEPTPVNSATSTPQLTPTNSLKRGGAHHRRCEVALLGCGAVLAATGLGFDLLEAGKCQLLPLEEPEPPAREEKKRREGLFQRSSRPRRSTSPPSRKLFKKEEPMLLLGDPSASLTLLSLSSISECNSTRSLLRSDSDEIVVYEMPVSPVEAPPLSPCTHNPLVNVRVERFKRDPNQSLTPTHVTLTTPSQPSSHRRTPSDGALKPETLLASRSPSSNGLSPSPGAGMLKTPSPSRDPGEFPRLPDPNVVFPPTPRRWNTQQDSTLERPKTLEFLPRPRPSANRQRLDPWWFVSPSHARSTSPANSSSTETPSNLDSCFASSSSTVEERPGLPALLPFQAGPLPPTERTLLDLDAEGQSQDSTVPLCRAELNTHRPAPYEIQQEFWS

MUSK = MUSK (Homo sapiens, UniProt O15146)
TLK2 = TLK2 (Homo sapiens, UniProt Q86UE8)
PLK1 = PLK1 (Homo sapiens, UniProt P53350)
Chain of PLK1 (P53350 whole entry): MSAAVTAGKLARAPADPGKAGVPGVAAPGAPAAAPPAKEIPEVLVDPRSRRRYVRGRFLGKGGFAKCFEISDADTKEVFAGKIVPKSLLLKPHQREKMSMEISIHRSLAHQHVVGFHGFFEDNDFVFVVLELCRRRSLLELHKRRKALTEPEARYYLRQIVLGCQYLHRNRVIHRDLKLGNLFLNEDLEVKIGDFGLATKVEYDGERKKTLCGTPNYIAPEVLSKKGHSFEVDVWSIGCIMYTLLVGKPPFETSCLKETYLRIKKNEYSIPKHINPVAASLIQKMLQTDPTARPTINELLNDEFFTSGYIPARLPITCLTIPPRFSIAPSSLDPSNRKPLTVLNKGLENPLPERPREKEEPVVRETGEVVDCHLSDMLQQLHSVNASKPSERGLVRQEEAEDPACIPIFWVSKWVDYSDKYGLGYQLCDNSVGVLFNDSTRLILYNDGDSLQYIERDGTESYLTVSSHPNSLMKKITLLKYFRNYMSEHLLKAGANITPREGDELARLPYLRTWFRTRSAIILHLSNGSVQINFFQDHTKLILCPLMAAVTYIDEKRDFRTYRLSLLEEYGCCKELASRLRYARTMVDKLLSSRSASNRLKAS

SIK2 = SIK2 (Homo sapiens, UniProt Q9H0K1)
MKNK1 = MKNK1 (Homo sapiens, UniProt Q9BUB5)
Chain of MKNK1 (Q9BUB5 whole entry): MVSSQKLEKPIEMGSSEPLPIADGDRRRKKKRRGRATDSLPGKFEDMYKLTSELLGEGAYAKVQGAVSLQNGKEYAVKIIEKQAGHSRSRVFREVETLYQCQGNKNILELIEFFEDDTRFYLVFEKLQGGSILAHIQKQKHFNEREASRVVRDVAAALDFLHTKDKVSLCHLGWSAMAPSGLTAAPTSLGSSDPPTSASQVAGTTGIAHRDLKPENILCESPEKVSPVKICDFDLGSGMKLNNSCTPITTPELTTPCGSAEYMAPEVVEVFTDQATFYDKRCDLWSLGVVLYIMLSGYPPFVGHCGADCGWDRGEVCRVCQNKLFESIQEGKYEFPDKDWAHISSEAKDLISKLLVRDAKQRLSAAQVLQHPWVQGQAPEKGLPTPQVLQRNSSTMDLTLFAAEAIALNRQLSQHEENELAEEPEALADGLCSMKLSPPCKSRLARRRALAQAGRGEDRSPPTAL

ULK3 = ULK3 (Homo sapiens, UniProt Q6PHR2)
Chain of ULK3 (Q6PHR2 whole entry): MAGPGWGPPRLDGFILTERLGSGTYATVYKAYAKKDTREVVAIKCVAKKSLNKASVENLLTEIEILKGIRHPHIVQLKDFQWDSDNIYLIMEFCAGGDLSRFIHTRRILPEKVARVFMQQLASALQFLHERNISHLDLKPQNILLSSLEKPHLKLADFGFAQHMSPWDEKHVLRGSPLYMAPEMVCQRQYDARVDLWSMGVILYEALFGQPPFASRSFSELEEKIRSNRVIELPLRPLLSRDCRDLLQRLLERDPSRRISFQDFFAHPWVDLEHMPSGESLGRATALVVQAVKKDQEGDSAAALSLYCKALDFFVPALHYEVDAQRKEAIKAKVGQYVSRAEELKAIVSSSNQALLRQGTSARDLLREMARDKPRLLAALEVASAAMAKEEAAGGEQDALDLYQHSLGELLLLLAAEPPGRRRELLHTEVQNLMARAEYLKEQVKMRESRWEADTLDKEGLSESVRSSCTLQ

TAK1 = biological target: T6, TAK1 (Homo sapiens, UniProt O43318)
T6 construct: gene MAP3K7

SRPK2 = SRPK2 (Homo sapiens, UniProt P78362)
Chain of SRPK2 (P78362 whole entry): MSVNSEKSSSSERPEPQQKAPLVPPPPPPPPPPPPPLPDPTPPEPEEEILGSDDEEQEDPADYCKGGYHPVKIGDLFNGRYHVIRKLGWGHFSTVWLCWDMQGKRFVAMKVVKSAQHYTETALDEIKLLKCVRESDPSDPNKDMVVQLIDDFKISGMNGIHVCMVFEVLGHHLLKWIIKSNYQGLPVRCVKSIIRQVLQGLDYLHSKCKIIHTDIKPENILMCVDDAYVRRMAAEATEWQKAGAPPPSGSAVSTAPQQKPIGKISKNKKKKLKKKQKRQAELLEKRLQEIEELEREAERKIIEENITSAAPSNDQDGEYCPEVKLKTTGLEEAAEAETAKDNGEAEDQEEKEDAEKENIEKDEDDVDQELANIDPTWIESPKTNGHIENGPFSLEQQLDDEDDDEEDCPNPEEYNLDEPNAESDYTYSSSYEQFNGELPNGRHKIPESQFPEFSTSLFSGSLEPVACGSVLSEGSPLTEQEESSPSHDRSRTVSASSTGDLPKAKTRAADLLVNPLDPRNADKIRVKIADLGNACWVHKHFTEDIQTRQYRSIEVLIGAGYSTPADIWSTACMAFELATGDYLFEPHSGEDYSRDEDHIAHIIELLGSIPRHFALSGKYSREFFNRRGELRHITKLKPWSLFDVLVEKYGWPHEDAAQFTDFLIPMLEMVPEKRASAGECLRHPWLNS

ICK = biological target: T7, ICK (Homo sapiens, UniProt Q9UPZ9)
T7 construct: gene CILK1
T7 sequence (Q9UPZ9 whole entry): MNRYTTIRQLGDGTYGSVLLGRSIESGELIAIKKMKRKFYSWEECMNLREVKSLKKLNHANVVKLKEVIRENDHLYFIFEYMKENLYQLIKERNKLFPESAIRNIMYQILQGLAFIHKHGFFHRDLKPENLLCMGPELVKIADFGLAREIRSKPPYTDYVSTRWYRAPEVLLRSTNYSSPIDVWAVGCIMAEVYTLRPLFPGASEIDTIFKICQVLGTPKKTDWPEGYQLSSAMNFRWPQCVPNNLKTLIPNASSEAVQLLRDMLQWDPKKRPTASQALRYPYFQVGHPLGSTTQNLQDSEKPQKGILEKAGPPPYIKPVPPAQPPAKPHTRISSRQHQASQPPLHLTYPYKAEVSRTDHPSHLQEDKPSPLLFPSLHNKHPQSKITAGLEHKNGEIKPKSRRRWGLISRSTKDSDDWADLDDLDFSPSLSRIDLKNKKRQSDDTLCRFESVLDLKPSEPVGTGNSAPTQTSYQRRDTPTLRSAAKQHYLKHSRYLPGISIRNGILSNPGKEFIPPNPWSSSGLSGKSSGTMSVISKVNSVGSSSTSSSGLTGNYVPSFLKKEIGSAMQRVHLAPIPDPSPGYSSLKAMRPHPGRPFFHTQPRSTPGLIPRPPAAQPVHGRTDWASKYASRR

p38-beta = biological target: T8, p38-beta (Homo sapiens, UniProt Q15759)
T8 construct: gene MAPK11
T8 sequence (Q15759 whole entry): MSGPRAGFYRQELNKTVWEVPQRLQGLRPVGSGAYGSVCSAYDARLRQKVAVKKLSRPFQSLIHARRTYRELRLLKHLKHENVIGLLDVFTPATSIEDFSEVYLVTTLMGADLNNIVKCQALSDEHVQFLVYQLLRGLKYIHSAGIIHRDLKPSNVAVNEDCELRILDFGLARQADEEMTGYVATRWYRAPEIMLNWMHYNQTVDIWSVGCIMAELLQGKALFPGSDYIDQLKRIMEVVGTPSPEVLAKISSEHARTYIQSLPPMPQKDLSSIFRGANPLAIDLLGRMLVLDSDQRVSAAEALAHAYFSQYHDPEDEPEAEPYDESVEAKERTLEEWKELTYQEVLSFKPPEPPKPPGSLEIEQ

## COc1cc2c(cn1)N(C)C(=O)[C@@H](NC(=O)c1nc3n(n1)[C@H](c1ccccc1)CC3)CC2 [GNE684, (S)-N-((S)-7-methoxy-1-methyl-2-oxo-2,3,4,5-tetrahydro-1H-pyrido[3,4-b]azepin-3-yl)-5-phenyl-6,7-dihydro-5H-pyrrolo[1,2-b][1,2,4]triazole-2-carboxamide]
MELK
  remaining binding at 10 µM: 93%
ANKK1
  remaining binding at 10 µM: 98%
DAPK2
  remaining binding at 10 µM: 74%
CDK4-cyclinD1
  remaining binding at 10 µM: 87%
CDK4-cyclinD3
  remaining binding at 10 µM: 97%
PFCDPK1(P.falciparum)
  remaining binding at 10 µM: 100%
SNRK
  remaining binding at 10 µM: 93%
PAK2
  remaining binding at 10 µM: 100%
S6K1
  remaining binding at 10 µM: 88%
BMX
  remaining binding at 10 µM: 94%
CSF1R
  remaining binding at 10 µM: 100%
MLK1
  remaining binding at 10 µM: 99%
MUSK
  remaining binding at 10 µM: 98%
TLK2
  remaining binding at 10 µM: 100%
PLK1
  remaining binding at 10 µM: 79%
SIK2
  remaining binding at 10 µM: 98%
MKNK1
  remaining binding at 10 µM: 100%
ULK3
  remaining binding at 10 µM: 100%
TAK1
  remaining binding at 10 µM: 100%
SRPK2
  remaining binding at 10 µM: 100%
ICK
  remaining binding at 10 µM: 93%
p38-beta
  remaining binding at 10 µM: 97%
